According to patent US20150328310A1, “METHODS AND COMPOSITIONS RELATING TO TREATMENT OF CANCER” (THE PENN STATE RESEARCH FOUNDATION, priority 2012, published 2015):
Where two headings read alike, the source gives them in different places.

Legend:
[1] = test system: SW480; experiment: Cell viability assay of ISC-4 combined with approved antitumor agents, SW480; assay type: cell-based, human; design: key: uncooperative (−); cooperative (+); synergistic (*); ambiguous (?); conditions: ISC-4 (1, 2, or 4 μM) plus therapy at putative EC12.5, EC25, EC50; compared to monoagent activity
Protocol: (§1) Cell lines are obtained from ATCC and cultured in ATCC-recommended media in a humidified incubator at 5% CO2 and 37° C. For cell viability assays, cells are seeded into 96-well black-walled plates at a concentration of 1×10^5 cells per mL in fresh media and in a volume of 100 μL per well. Cells are allowed to adhere overnight and are treated the next day as indicated. At endpoint, CellTiter-Glo (Promega) assays are performed according to the manufacturer's protocol, and the bioluminescent readout is recorded on an IVIS imaging system (Xenogen).
(§2) The SW480 and RKO human colon cancer cell lines are used for initial profiling based on their heterogeneous oncogenic genetic alterations.
(§3) Combinatorial activities of ISC-4 and each listed drug are compared to monoagent activities of each drug alone by cell viability assays and determined to be uncooperative (−), cooperative (+), synergistic (*), or ambiguous (?).

[2] = test system: RKO; experiment: Cell viability assay of ISC-4 combined with approved antitumor agents, RKO; assay type: cell-based, human; design: key: uncooperative (−); cooperative (+); synergistic (*); ambiguous (?); conditions: ISC-4 (1, 2, or 4 μM) plus therapy at putative EC12.5, EC25, EC50; compared to monoagent activity
Protocol: as §1, §2, §3

[3] = test system: SW480 and RKO colon cancer cell lines; conditions: estimated from the literature, dose used with ISC-4 in FIG. 2, cited from earlier work
[4] = test system: RKO cells; experiment: Sub-G1 content by flow cytometry, combination; assay type: cell-based, human; conditions: zVAD-fmk 25 μM
Protocol: (§4) For sub-G1 DNA content analysis, cells are trypsinized at the indicated time points and fixed in 80% ethanol at 4° C. for a minimum of 30 minutes. Fixed cells are then stained with propidium iodide in the presence of RNase and analyzed on an Epics Elite flow cytometer (Beckman Coulter).

[5] = test system: panel of human cancer cell lines; experiment: Cell viability assay of ISC-4 in a panel of human cancer cell lines (72 hr); assay type: cell-based; conditions: human colon cancer cell lines with the exception of HT-29
Protocol: as §1, with “(Xenogen). For cell synchronization, cells are incubated with 200 ng/mL nocodazole for 16 hours prior to treatment. Chloroquine is obtained from Sigma. zVAD-fmk is obtained from Promega and used at a working concentration of 25 μM. ISC-4 is synthesized as described in Sharma, A. K., et al., J. of Med. Chem., 2008, 51(24):7820-7826.” for “(Xenogen).”
The in vitro activity of ISC-4 is tested in a panel of human cancer cell lines to characterize its spectrum of activity.
The isogenic HCT116 cell lines indicate that ISC-4 activity is likely p53- and Bax-independent.

[6] = test system: human colon cancer cell lines; experiment: Cell cycle / sub-G1 DNA content analysis after ISC-4 treatment; assay type: cell-based
Protocol: as §4
The effect of ISC-4 treatment on cell cycle profiles of synchronous and asynchronous HCT116 (FIG. 1B) and HT-29 (FIG. 1C) cell lines is shown. […] Thus, ISC-4 has modest single agent activity against human colon cancer cells by causing cell death and a decrease in proliferation.

[7] = Serum chemistry profiles of mice; assay type: in vivo; conditions: serum 2 days after last dose; ISC-4 3 mg/kg i.p., cetuximab 10 mg/kg i.v., twice a week for 2 weeks
Protocol: Athymic female nude mice (Charles River Laboratories) are inoculated with 1×10^6 of 5-FU-resistant RKO or HT-29 cells in each rear flank as a 200 μL suspension of 1:1 Matrigel (BD):PBS. Treatment is initiated once tumors reached a mean volume of […], intraperitoneal or intravenous injections are given at a total volume of 200 μL in DMSO. […] Tissue is paraffin-embedded and sectioned. H&E staining (Daiko) and TUNEL staining (Millipore) are carried out according to the manufacturer's protocols. For serum chemistry assays, 1 mL of blood is harvested from anesthetized mice by terminal cardiac puncture of the left ventricle. For serum chemistry, 500 μL is placed into a microfuge tube and allowed to clot for 30 minutes at room temperature followed by centrifugation. Serum is removed, centrifuged again to remove any additional debris prior to analysis.
Serum was collected 2 days following the last dose.

Panitumumab
Combinatorial effect of ISC-4 with the listed therapy, SW480 [1]: −
Combinatorial effect of ISC-4 with the listed therapy, RKO [2]: −
EC12.5 [3]: 0.75 µg/mL
EC25 [3]: 1.5 mg/L
EC50 [3]: 3 mg/L

COc1cc([C@@H]2c3cc4c(cc3[C@@H](O[C@@H]3O[C@@H]5CO[C@@H](C)O[C@H]5[C@H](O)[C@H]3O)[C@H]3COC(=O)[C@H]23)OCO4)cc(OC)c1O [Etoposide]
Combinatorial effect of ISC-4 with the listed therapy, SW480 [1]: −
Combinatorial effect of ISC-4 with the listed therapy, RKO [2]: −
EC12.5 [3]: 1.25 µM
EC25 [3]: 2500 nM
EC50 ([3]; read-out: EC50): 5000 nM

CCc1c2c(nc3ccc(OC(=O)N4CCC(N5CCCCC5)CC4)cc13)-c1cc3c(c(=O)n1C2)COC(=O)[C@]3(O)CC [Irinotecan]
Combinatorial effect of ISC-4 with the listed therapy, SW480 [1]: −
Combinatorial effect of ISC-4 with the listed therapy, RKO [2]: −
EC12.5 [3]: 3.38 µM
EC25 [3]: 6750 nM
EC50 ([3]; read-out: EC50): 13000 nM

Nc1ccn([C@@H]2O[C@H](CO)[C@@H](O)C2(F)F)c(=O)n1 [Gemcitabine]
Combinatorial effect of ISC-4 with the listed therapy, SW480 [1]: −
Combinatorial effect of ISC-4 with the listed therapy, RKO [2]: +
EC12.5 [3]: 0.5 µM
EC25 [3]: 1000 nM
EC50 ([3]; read-out: EC50): 2000 nM

Nc1nc2[nH]cc(CCc3ccc(C(=O)N[C@@H](CCC(=O)O)C(=O)O)cc3)c2c(=O)[nH]1 [Pemetrexed]
Combinatorial effect of ISC-4 with the listed therapy, SW480 [1]: −
Combinatorial effect of ISC-4 with the listed therapy, RKO [2]: −
EC12.5 [3]: 0.25 µg/mL
EC25 [3]: 0.5 mg/L
EC50 [3]: 1 mg/L

Nc1nc(Cl)nc2c1ncn2[C@H]1C[C@H](O)[C@@H](CO)O1 [Cladribine]
Combinatorial effect of ISC-4 with the listed therapy, SW480 [1]: −
Combinatorial effect of ISC-4 with the listed therapy, RKO [2]: −
EC12.5 [3]: 0.025 µM
EC25 [3]: 50 nM
EC50 ([3]; read-out: EC50): 100 nM

CC[C@]1(O)C[C@H]2CN(CCc3c([nH]c4ccccc34)[C@@](C(=O)OC)(c3cc4c(cc3OC)N(C=O)[C@H]3[C@@](O)(C(=O)OC)[C@H](OC(C)=O)[C@]5(CC)C=CCN6CC[C@]43[C@@H]65)C2)C1 [Vincristine]
Combinatorial effect of ISC-4 with the listed therapy, SW480 [1]: −
Combinatorial effect of ISC-4 with the listed therapy, RKO [2]: −
EC12.5 [3]: 3.5e-05 µM
EC25 [3]: .07 nM
EC50 ([3]; read-out: EC50): 0.14 nM

[Se]=C=NCCCCc1ccccc1 [ISC-4]
ISC-4-induced sub-G1 content on co-incubation with pan-caspase inhibitor zVAD-fmk [4]: significantly inhibited
Sensitivity to ISC-4 treatment [5]: moderately sensitive
Concentration at which ISC-4-induced sub-G1 content becomes apparent ([6]; colon cancer cell lines, 0, 1, 2, 4, 8, or 16 μM ISC-4, dose-dependent): > 8 µM
Sub-G1 content ([6]; synchronized HCT116 and HT-29 cells): modest increase in sub-G1 content
ALT [7]: 29 ± 2 U/L
AST [7]: 221 ± 138 U/L
Alk. Phos. (alkaline phosphatase) [7]: 35 ± 10 U/L
BUN (blood urea nitrogen) [7]: 22 ± 1 mg/dL
Cl [7]: 107 ± 3 mmol/L
Creatinine [7]: 0.1 ± 0 mg/dL
Glucose [7]: 309 ± 8 mg/dL
K [7]: 4.8 ± .1 mmol/L
LDH (lactate dehydrogenase) [7]: 1074 ± 531 U/L
Na [7]: 155 ± 2 mmol/L
T. Bil (total bilirubin) [7]: 0.65 ± 0.07 mg/dL

CC(=O)O[C@H]1C(=O)[C@@]2(C)[C@H]([C@H](OC(=O)c3ccccc3)[C@]3(O)C[C@H](OC(=O)[C@H](O)[C@@H](NC(=O)c4ccccc4)c4ccccc4)C(C)=C1C3(C)C)[C@]1(OC(C)=O)CO[C@@H]1C[C@@H]2O [Paclitaxel]
Combinatorial effect of ISC-4 with the listed therapy, SW480 [1]: −
Combinatorial effect of ISC-4 with the listed therapy, RKO [2]: −
EC12.5 [3]: 0.0025 µM
EC25 [3]: 5 nM
EC50 ([3]; read-out: EC50): 10 nM
